Like-named read-outs stand apart in the source and are kept apart here.

Consider two compounds from patent US20250282746A1, “HALOGEN-SUBSTITUTED ISOINDOLINE COMPOUND AND USE THEREOF” (CHENGDU FENDI PHARMACEUTICAL CO., LTD., priority 2022, published 2025).

Common to all, as to type: cell-based
In one data set the test system is U937 cells. Kind of data set: Antiproliferative activity against various tumor cells: U937. Particulars: Homo sapiens, read-out: Antiproliferative activity IC50 U937.
The next data set deals with T1, c-Myc (Homo sapiens, UniProt P01106).
T1 construct: The whole cell lysate was prepared using a RIPA lysis buffer; endogenous in cells; host or cells: HL-60 cells
Kind of data set: Degradation of c-MYC protein in HL-60 cells (Western blot). Particulars: 4 h. The method, then: (§1) […] of DMSO and the compounds were added, and the mixture was incubated in an incubator at 5% CO2 and 37° C. for 4 h. The cells were centrifuged, and the culture medium was discarded. PBS was added for washing and then discarded. The whole cell lysate was prepared using a RIPA lysis buffer containing a protease inhibitor cocktail and a phosphatase inhibitor, and incubated on ice for 30 min. The mixture was centrifuged, and the cell debris was discarded. The whole cell lysate supernatant was collected and transferred to a fresh EP tube. Samples were prepared using a loading buffer after a BCA protein assay. The samples were incubated in a metal bath at 100° C. for 10 min. The samples were electrophoretically separated from proteins on a 4-20% precast gel (SDS-PAGE gel), transferred to a PVDF membrane, blocked with 5% NFDM/TBST for 1 h at room temperature, co-incubated overnight at 4° C. with the primary antibody, and co-incubated for 2 h at room temperature with the secondary antibody on the next day. The signals were detected on the […]™ imaging system.
In general terms: Immunoblotting shows a protein as a band on a membrane.

A further data set deals with T2, IKZF1 (Homo sapiens, UniProt Q13422).
T2 construct: The whole cell lysate was prepared using a RIPA lysis buffer; endogenous in cells; host or cells: HL-60 cells
Kind of data set: Degradation of IKZF1 protein in HL-60 cells (Western blot). The conditions noted are these: 4 h. The method, then:
as §1

Another data set relates to MOLM-13 cells. Kind of data set: Antiproliferative effect alone and in combination with azacitidine against MOLM-13 cells. Particulars: MOLM-13 cells; for IC50: Homo sapiens, MOLM-13, 72 h, 72 h. The procedure: (§2) MOLM-13 cells in the logarithmic growth phase were diluted in a medium RPMI+[…], and NCI-H929 cells were diluted in a medium RPMI+10% FBS. The cells were plated at 4,000 cells/well in 96-well whole black plates (WHB) with 50 μL/well. After plating, the plates were incubated in an incubator at 5% CO2 and 37° C. for 24 h before the compounds were added. The compounds were prepared into a 10 mM stock solution in DMSO and diluted in a culture medium to the desired concentrations (a final DMSO concentration of 0.2%). 50 μL of the compound dilutions at final concentrations of 10,000, 3,333.33, 1,111.11, 370.37, 123.46, 41.15, 13.72, 4.57, 1.52, and 0 nM were added to the 96-well plates containing the cells, that is, each compound was serially diluted to 10 concentrations in duplicate. The plates were incubated at 5% CO2 and 37° C. for 72 h. When pharmaceutical partners were used, the concentrations of azacitidine and dexamethasone were kept at 200 nM and 500 nM respectively, and the compounds were serially three-fold diluted from 10,000 nM. After the incubation was complete, the plates were equilibrated at room temperature for 30 min. CellTiter-Glo® Reagent (Promega G7573) was added at 100 μL/well. The plates were shaken for 12 min on a microplate shaker. The luminescence value was measured at room temperature by the GloMax navigator (Promega GM2010). The IC50 values were calculated using the GraphPad Prism 7 software with the 0 nM control group as 0% inhibition.

For a further data set, the target named is T3, hERG potassium channel (Homo sapiens, UniProt Q12809).
T3 construct: expressed in transfected cells; host or cells: HEK293 cells
Kind of data set: hERG inhibition assay (automated patch clamp, HEK293). The conditions noted are these: 3 μM, HEK293 cells, QPatch. The source says: The rapidly activating potassium channel encoded by human ether-a-go-go-related gene (hERG) is an important ion channel involved in the formation of cardiac action potential phase 3 repolarization. Blocking of the hERG channel by drugs can lead to the prolongation of cardiac repolarization and thus a prolonged QT interval in the electrocardiogram, known as long QT syndrome. Drug-induced delayed ventricular repolarization may in some cases trigger fatal arrhythmia-torsade de pointes-type ventricular tachycardia.
This assay was used to measure the effect of compounds on the hERG potassium channel clones expressed in human embryonic kidney (HEK293) cells. The assay procedures are as follows: the cells were transferred into a HEPES-buffered saline in glass-lined 96-well plates and exposed to an appropriate amount of test compound or control solution at various concentrations for 3 min. The test compounds were diluted in 0.3% DMSO.
Background: Block of hERG is tested as a sign of cardiac risk.

The next data set addresses T4, CK1α (Homo sapiens, UniProt P48729).
T4 construct: The whole cell lysate was prepared using a RIPA lysis buffer; endogenous in cells; host or cells: HL-60 cells
Put plainly: Degradation of CK1α protein in HL-60 cells (Western blot). The conditions noted are these: 4 h. The procedure:
as §1

The next data set concerns NCI-H929 cells. Kind of data set: Antiproliferative effect alone and in combination with dexamethasone against NCI-H929 cells. Particulars: for IC50: Homo sapiens, NCI-H929, 72 h, 72 h. The method, then:
as §2

T4 sequence (P48729 whole entry): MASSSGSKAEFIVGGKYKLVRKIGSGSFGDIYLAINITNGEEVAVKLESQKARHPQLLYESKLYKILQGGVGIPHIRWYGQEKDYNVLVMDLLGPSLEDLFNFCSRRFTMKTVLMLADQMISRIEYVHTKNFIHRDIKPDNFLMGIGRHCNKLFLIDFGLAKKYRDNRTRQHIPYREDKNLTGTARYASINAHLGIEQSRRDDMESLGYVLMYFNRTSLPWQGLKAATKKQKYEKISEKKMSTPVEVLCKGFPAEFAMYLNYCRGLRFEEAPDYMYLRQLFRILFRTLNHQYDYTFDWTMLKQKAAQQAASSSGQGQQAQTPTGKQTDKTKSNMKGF
T1 sequence (P01106 whole entry): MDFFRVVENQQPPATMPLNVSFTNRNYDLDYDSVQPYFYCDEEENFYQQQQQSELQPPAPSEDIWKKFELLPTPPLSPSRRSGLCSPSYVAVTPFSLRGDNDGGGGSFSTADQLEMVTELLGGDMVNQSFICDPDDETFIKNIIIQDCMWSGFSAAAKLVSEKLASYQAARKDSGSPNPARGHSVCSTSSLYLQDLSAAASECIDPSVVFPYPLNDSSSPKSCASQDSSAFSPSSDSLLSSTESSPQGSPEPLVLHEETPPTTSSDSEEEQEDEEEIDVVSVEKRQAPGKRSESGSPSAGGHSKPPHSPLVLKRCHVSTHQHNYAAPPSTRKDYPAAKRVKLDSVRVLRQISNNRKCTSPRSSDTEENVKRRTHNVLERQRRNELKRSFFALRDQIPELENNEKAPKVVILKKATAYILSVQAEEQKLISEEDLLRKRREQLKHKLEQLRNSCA
T2 sequence (Q13422 whole entry): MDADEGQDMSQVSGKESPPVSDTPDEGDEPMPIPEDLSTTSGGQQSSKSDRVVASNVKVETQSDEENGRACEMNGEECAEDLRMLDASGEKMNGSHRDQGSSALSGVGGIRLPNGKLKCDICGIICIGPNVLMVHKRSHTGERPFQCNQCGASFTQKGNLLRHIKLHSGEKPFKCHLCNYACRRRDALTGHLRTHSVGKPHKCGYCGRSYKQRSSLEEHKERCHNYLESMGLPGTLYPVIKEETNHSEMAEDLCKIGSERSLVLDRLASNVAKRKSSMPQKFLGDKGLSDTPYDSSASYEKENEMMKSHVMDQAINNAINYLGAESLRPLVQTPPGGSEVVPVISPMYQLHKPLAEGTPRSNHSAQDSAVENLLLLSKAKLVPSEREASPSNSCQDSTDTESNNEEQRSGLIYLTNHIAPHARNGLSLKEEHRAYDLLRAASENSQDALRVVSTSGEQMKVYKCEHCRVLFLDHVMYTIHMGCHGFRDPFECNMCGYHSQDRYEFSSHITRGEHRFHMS
T3 sequence (Q12809 whole entry): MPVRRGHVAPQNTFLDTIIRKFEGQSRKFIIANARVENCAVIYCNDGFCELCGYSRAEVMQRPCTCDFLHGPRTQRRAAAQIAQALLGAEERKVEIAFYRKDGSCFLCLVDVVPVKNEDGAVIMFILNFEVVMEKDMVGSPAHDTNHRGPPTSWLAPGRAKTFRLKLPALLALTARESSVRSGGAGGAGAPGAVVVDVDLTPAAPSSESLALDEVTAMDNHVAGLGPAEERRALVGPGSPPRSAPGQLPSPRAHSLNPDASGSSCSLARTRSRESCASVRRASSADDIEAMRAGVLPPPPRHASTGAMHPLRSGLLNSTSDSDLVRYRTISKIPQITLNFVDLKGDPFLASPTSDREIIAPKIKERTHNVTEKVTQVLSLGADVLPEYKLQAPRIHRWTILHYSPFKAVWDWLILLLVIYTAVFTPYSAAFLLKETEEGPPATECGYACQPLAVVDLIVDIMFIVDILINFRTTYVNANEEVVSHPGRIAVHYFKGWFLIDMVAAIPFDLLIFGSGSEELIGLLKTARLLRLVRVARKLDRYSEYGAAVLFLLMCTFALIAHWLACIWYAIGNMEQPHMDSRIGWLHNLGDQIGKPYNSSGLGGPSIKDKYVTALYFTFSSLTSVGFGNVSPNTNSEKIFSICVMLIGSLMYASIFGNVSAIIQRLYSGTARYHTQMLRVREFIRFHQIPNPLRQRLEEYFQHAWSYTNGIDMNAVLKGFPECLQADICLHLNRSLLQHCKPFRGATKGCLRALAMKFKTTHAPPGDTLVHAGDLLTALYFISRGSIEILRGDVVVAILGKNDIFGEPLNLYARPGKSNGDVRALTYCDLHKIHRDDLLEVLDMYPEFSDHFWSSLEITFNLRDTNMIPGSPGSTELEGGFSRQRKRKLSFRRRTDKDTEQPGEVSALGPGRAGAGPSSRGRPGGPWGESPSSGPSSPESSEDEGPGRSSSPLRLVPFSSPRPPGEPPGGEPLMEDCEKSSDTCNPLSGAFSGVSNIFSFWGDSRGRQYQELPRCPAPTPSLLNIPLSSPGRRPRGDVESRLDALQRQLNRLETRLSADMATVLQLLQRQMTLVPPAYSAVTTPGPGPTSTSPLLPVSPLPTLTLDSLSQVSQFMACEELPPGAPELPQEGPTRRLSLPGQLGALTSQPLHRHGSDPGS

The term IC50 denotes the concentration that inhibits the measured activity by half. Regarding `Cc1ccc(C(=O)NCc2ccc3c(c2F)CN(C2CCC(=O)NC2=O)C3=O)c(F)c1` (centres unmarked) [FDAB-121], the IC50 is 10 to 100 nM in the data set with U937 cells (U-937, U937 cells, 72 h); 248 nM in the data set on MOLM-13 cells (compound alone); 9.68 nM with MOLM-13 cells (in combination with 200 nM azacitidine). Besides, the c-Myc degradation result at c-Myc (10 nM), on c-Myc (100 nM) and at c-Myc (1000 nM) was “D (D denotes a percentage of degradation less than 25%)” each time. The values for the IKZF1 degradation entry at IKZF1 (10 nM), on IKZF1 (100 nM) and on IKZF1 (1000 nM) were “B (B denotes a percentage of degradation less than 800% but not less than 500%)”, “A (A denotes a percentage of GSPT1 protein degradation not less than 8000)” and “A (A denotes a percentage of GSPT1 protein degradation not less than 8000)”, respectively. The “activity relative to CC-90009, alone or in combination with azacitidine” value in the data set with MOLM-13 cells is “about 5 folds”. For the same compound, in the data set with MOLM-13 cells, the “increase of antiproliferative activity IC50 when combined with 200 nM azacitidine” value is “about 25 folds”. For the same compound, on hERG potassium channel, the hERG inhibition rate is 9%. The CK1α degradation entry was “D (D denotes a percentage of degradation less than 25%)” at CK1α (10 nM), “D (D denotes a percentage of degradation less than 25%)” on CK1α (100 nM) and “C (C denotes a percentage of degradation less than 500% but not less than 250%)” on CK1α (1000 nM).
In the case of `O=C1CCC(N2Cc3c(ccc(CNC(=O)c4ccc(Cl)cc4)c3F)C2=O)C(=O)N1` (centres unmarked) [FDAB-48], the IC50 is 10 to 100 nM with U937 cells (U-937, 72 h); 14.3 nM with NCI-H929 cells (compound alone); 2.45 nM in the data set on NCI-H929 cells (in combination with 500 nM dexamethasone). The c-Myc degradation result on c-Myc (10 nM) was “D (D denotes a percentage of degradation less than 25%)”; at c-Myc (100 nM) it was “D (D denotes a percentage of degradation less than 25%)”; on c-Myc (1000 nM), “C (C denotes a percentage of degradation less than 500% but not less than 250%)”. In addition, the IKZF1 degradation result was “B (B denotes a percentage of degradation less than 800% but not less than 500%)” on IKZF1 (10 nM), “A (A denotes a percentage of GSPT1 protein degradation not less than 8000)” on IKZF1 (100 nM) and “A (A denotes a percentage of GSPT1 protein degradation not less than 8000)” at IKZF1 (1000 nM). Moreover, in the data set on NCI-H929 cells, the “increase of antiproliferative activity IC50 when combined with 500 nM dexamethasone” value is “about 6 folds”. For the same compound, the hERG inhibition rate on hERG potassium channel was 25%. Besides, the CK1α degradation result at CK1α (10 nM), on CK1α (100 nM) and on CK1α (1000 nM) was “D (D denotes a percentage of degradation less than 25%)” throughout.
